Results reported in publication PMC6143291 (The Journal of organic chemistry, 2017).
pIC50: −log10 of the molar value. Values after ≈ are worked out from the molar mass of the structure shown.

Legend:
Mtb Ag85C = Mtb Ag85C (Mycobacterium tuberculosis, UniProt P9WQN9); experiment: Fluorometric resorufin butyrate assay, apparent IC50 after 15 min incubation; type: biochemical
Mtb H37Rv = experiment: Microplate Alamar blue assay; type: cell-based, Mycobacterium tuberculosis; conditions: MABA, 2-fold serial dilution, read on day seven

Sequence of Mtb Ag85C (P9WQN9 46-340 limits assumed): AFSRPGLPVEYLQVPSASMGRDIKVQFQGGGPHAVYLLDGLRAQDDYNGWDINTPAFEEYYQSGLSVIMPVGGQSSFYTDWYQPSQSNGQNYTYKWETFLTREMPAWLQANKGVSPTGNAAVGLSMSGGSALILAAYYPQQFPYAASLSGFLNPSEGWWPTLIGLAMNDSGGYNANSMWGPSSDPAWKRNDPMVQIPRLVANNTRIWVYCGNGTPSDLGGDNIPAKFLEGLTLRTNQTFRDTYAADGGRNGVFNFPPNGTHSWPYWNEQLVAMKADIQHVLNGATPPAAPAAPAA

| SMILES | pIC50 (Mtb Ag85C) | MIC (Mtb H37Rv) [µg/mL] |
| --- | --- | --- |
| O=c1c2ccccc2[se]n1-c1ccccc1 [1a, 2-Phenylbenzo[d][1,2]selenazol-3(2H)-one, reference compound] | 5.29 |  |
| COc1ccc(Cn2[se]c3ccccc3c2=O)cc1 [1b, 2-(4-Methoxybenzyl)benzo[d][1,2]selenazol-3(2H)-one] | 6.27 |  |
| COc1ccccc1Cn1[se]c2ccccc2c1=O [1c, 2-(2-Methoxybenzyl)benzo[d][1,2]selenazol-3(2H)-one] | 4.54 |  |
| COc1ccc(-n2[se]c3ccccc3c2=O)cc1 [1d, 2-(4-Methoxyphenyl)benzo[d][1,2]selenazol-3(2H)-one] | 5.92 |  |
| O=c1c2ccccc2[se]n1Cc1ccccc1 [1e, 2-Benzylbenzo[d][1,2]selenazol-3(2H)-one] | 5.19 |  |
| O=c1c2ccccc2[se]n1CC1CCCCC1 [1g, 2-(Cyclohexylmethyl)benzo[d][1,2]selenazol-3(2H)-one] | 5.28 |  |
| O=c1c2ccccc2[se]n1-c1ccc(F)cc1 [1h, 2-(4-Fluorophenyl)benzo[d][1,2]selenazol-3(2H)-one] | 6.14 |  |
| O=c1c2ccccc2[se]n1-c1ccccc1F [1i, 2-(2-Fluorophenyl)benzo[d][1,2]selenazol-3(2H)-one] | 6.00 |  |
| [N-]=[N+]=Nc1ccc(-n2[se]c3ccccc3c2=O)cc1 [1j, 2-(4-Azidophenyl)benzo[d][1,2]selenazol-3(2H)-one] | 5.96 |  |
| CC(C)(C)n1[se]c2ccccc2c1=O [1k, 2-(tert-Butyl)benzo[d][1,2]selenazol-3(2H)-one] | 5.82 |  |
| O=c1c2ccccc2[se]n1C12CC3CC(CC(C3)C1)C2 [1l, 2-((3R,5S)-Adamantan-1-yl)benzo[d][1,2]-selenazol-3(2H)-one] |  | 50 (≈ 150 µM) |
| O=c1c2ccccc2[se]n1C1CCCC1 [1m, 2-Cyclopentylbenzo[d][1,2]selenazol-3(2H)-one] | 5.39 |  |
| O=c1c2ccccc2[se]n1C1CCCCC1 [1n, 2-Cyclohexylbenzo[d][1,2]selenazol-3(2H)-one] | 5.43 |  |
| [N-]=[N+]=Nc1ccc(NC(=O)c2ccccc2[Se]C#Cc2ccccc2)cc1 [compound 8, N-(4-Azidophenyl)-2-((phenylethynyl)selanyl)-benzamide] | < 4.00 |  |
| O=C(CCCCC1SC[C@@H]2NC(=O)N[C@H]12)NCCOCCOCCOCCNC(=O)CCC(=O)N1Cc2ccccc2-c2nnn(-c3ccc(-n4[se]c5ccccc5c4=O)cc3)c2-c2ccccc21 (stereo partly drawn) [compound 10, N-(13,16-Dioxo-16-(3-(4-(3-oxobenzo[d][1,2]-selenazol-2(3H)-yl)phenyl)-3,9-dihydro-8H-dibenzo[b,f][1,2,3]-triazolo[4,5-d]azocin-8-yl)-3,6,9-trioxa-12-azahexadecyl)-5-((3aS,6aR)-2-oxohexahydro-1H-thieno[3,4-d]imidazol-4-yl)-pentanamide] | 5.69 |  |
